These results are taken from ChEMBL document CHEMBL4014306, “Pyrazolopyrimidines as Potent Stimulators for Transient Receptor Potential Canonical 3/6/7 Channels” (J Med Chem, 2017).

Broadly, the EC50 is the concentration needed to bring the measured effect to its halfway point. What is called inhibition is the share of the control response that was lost under treatment.

Assay [1] has as its target T1, Short transient receptor potential channel 7 (Homo sapiens, UniProt Q9HCX4).
T1 sequence (Q9HCX4 whole entry): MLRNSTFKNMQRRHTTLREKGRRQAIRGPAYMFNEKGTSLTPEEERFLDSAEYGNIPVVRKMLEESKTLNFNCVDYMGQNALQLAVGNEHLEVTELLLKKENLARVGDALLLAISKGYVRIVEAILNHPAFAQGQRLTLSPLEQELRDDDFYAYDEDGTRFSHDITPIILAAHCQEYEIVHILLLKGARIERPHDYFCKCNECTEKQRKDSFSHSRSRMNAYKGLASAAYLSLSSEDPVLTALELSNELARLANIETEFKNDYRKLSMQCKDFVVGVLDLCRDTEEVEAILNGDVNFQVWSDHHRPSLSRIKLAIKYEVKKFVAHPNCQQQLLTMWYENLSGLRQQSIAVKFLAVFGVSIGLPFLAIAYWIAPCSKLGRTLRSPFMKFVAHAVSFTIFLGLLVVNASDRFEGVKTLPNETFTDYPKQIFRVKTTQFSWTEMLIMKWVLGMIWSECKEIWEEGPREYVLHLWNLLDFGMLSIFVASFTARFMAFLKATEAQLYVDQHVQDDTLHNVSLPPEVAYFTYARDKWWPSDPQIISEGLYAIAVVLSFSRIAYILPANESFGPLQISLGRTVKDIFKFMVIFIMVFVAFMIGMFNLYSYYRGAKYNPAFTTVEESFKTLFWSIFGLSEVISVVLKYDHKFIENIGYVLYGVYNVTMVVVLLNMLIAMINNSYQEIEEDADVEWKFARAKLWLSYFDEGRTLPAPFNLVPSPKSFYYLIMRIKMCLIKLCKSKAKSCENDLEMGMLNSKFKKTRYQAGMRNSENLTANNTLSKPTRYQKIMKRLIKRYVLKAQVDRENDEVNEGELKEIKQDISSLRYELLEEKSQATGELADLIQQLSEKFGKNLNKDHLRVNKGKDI
Briefly: Agonist activity at human TRPC7 expressed in HEK293 cells assessed as increase in intracellular calcium level measured for 2.5 mins in presence of 2 mM Ca2+ by Fluo8-AM dye-based fluorescence assay. The class given is cell-based. For orientation: Calcium assays in cells follow changes in intracellular calcium, usually with a dye or a luminescent sensor.

The target of assay [2] is T2, Short transient receptor potential channel 4 (Mus musculus) (UniProt Q9QUQ5).
T2 sequence (whole entry): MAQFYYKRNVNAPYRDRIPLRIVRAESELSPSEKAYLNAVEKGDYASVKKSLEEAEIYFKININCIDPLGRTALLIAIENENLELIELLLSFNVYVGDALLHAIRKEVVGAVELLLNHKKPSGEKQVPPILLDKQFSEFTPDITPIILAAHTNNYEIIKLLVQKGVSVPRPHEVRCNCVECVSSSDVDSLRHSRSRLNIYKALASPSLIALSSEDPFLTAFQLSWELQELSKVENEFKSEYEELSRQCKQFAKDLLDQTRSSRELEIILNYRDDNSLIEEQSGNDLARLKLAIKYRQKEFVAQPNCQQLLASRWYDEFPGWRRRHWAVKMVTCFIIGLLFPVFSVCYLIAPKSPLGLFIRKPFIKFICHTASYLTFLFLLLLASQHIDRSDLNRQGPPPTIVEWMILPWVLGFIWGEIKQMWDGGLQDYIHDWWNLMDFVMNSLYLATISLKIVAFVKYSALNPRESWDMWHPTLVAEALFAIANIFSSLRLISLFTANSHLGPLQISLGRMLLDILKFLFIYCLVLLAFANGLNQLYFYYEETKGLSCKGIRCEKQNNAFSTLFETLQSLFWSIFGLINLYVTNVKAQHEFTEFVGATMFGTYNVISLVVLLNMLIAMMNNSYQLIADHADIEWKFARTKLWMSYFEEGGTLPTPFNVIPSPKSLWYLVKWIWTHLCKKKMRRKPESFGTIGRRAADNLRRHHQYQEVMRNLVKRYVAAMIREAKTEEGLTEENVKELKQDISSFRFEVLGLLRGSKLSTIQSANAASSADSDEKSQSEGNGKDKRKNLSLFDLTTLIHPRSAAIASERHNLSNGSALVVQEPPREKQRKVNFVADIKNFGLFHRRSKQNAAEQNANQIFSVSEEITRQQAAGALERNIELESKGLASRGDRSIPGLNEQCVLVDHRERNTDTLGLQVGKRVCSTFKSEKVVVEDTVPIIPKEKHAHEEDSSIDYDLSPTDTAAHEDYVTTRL
The assay can be described thus: Agonist activity at mouse TRPC4beta expressed in HEK293 cells co-expressing MOR assessed as induction of membrane depolarization at 33 uM measured for 2.5 mins by FLIPR membrane potential dye-based fluorescence assay. Format: cell-based.

Assay [3] addresses Transient receptor potential cation channel subfamily A member 1 (Homo sapiens) (UniProt O75762). The assay can be described thus: Agonist activity at human TRPA1 expressed in HEK293 cells assessed as increase in intracellular calcium level at 33 uM measured for 2.5 mins by Fluo-8-AM dye based fluorescence assay. Format: cell-based.
In assay [4] the target is Transient receptor potential cation channel subfamily M member 8 (Mus musculus) (UniProt Q8R4D5). The assay can be described thus: Inhibition of mouse TRPM8 expressed in HEK293 cells assessed as decrease in menthol-evoked increase in intracellular calcium level at 22 uM preincubated for 2 mins followed by menthol addition measured for 2.5 mins by Fluo8-AM dye-based fluorescence assay relative to control.

SMILES strings stand for the structures. Calls of active or inactive are those of the source. The calls are words filed in the database; no cut-off is given here.

Transient receptor potential cation channel subfamily M member 8 (Mus musculus), sequence (Q8R4D5 whole entry): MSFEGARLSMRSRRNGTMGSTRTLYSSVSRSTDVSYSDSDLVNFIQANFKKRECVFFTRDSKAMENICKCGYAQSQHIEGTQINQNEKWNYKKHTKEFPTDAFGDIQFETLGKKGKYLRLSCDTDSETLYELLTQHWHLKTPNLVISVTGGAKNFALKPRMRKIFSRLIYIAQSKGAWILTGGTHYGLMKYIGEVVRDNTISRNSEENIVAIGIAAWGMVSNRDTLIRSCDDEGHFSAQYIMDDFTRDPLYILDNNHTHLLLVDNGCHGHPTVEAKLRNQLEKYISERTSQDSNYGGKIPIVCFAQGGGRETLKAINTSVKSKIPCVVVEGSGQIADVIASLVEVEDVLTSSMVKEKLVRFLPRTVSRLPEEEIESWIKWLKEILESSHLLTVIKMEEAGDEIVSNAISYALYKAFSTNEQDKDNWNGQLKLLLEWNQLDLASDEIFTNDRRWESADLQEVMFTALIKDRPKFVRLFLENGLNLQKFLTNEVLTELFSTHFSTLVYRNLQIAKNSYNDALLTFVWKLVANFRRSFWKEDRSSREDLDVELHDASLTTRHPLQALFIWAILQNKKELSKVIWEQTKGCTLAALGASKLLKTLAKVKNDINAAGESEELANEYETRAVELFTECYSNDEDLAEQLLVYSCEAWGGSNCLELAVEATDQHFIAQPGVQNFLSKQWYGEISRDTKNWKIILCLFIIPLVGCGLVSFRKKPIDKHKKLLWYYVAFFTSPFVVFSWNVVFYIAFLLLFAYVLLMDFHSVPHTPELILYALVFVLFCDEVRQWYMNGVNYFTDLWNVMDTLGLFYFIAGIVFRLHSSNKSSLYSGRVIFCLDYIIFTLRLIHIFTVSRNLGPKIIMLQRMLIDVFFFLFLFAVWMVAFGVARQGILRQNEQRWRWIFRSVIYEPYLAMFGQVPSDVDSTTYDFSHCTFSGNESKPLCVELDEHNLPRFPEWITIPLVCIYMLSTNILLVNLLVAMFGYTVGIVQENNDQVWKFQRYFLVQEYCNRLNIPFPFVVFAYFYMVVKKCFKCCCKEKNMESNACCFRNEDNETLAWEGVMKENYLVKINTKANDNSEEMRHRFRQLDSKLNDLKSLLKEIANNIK
Transient receptor potential cation channel subfamily A member 1 (Homo sapiens), sequence (O75762 whole entry): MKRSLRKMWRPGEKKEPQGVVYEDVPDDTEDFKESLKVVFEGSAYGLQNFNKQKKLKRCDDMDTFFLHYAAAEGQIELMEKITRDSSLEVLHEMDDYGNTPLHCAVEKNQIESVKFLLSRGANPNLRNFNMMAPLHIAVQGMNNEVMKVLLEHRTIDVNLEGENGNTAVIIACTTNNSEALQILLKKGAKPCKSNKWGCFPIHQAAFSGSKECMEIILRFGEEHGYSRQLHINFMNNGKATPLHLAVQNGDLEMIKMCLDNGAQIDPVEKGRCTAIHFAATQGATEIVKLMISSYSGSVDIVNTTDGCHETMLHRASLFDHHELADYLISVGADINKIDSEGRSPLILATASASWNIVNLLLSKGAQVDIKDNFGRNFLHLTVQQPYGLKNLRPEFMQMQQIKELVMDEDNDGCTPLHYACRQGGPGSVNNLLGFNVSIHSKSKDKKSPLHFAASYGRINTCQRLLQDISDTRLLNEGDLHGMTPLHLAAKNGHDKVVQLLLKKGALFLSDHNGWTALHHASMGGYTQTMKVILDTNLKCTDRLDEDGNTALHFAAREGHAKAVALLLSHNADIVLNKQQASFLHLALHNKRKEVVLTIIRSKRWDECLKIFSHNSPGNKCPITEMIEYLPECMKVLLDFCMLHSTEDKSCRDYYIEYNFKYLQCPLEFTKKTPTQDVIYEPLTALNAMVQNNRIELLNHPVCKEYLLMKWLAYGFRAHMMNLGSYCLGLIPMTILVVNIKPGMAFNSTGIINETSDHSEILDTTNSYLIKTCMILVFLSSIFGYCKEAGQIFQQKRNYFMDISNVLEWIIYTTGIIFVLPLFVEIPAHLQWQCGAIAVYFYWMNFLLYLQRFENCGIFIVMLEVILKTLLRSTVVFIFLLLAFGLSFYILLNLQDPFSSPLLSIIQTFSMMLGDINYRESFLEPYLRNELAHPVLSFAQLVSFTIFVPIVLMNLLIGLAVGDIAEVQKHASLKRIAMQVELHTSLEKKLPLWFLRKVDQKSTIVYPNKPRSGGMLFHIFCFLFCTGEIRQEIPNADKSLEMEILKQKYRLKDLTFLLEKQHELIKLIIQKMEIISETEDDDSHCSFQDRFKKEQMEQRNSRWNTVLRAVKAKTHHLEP

As to `Cc1nn2c(O)cc(C3CCN(C(=O)OCc4ccccc4)CC3)nc2c1-c1ccc(Cl)cc1`, the EC50 in assay [1] was 213 nM. Moreover, the result in assay [2] and in assay [3] was inactive.

In the case of `Cc1nn2c(O)cc(C3CCN(C(=O)OCc4ccccc4)CC3)nc2c1-c1ccc(F)cc1`, the EC50 in assay [1] is 314 nM. Moreover, the inhibition in assay [4] was 35%. In addition, the result in assay [2] and in assay [3] was inactive.

On to `CCOC(=O)N1CCC(c2cc(O)n3nc(C)c(-c4ccc(F)cc4)c3n2)CC1`, for which the EC50 in assay [1] was found to be 497 nM. In addition, the inhibition in assay [4] came out at 22%. Further, the result in assay [2] and in assay [3] was inactive.

For `CCOC(=O)N1CCC(c2cc(O)n3nc(C)c(-c4ccc(C(F)(F)F)cc4)c3n2)CC1`, the EC50 in assay [1] amounted to 90 nM. For the same compound, the inhibition in assay [4] is 17%. Moreover, the result in assay [2] and in assay [3] was inactive.
